Experimental data: ChEMBL document CHEMBL1201862, “PubChem BioAssay data set” (2004)
Values joined by “and” are separate entries in the source; they are usually repeats but may differ in a detail not shown here. Equal values may be shown once.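 All cell lines were grown in 96-well plates and treated with compound for 48 hours. GI50: concentration for 50% inhibition of growth.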 Active and inactive are the calls of the source. Rule as the data show it: active = GI50 up to about 1.1 µM and inactive = higher.

Tests used:
Test in all cases: DTP human tumour cell line panel, 48 h
[1] = system: 786-0
[2] = system: DLD-1
[3] = system: CCRF-CEM
[4] = system: KM-20L2
[5] = system: Malme-3M
[6] = system: A498
[7] = system: OVCAR-5
[8] = system: SF-268
[9] = system: SNB-75
[10] = system: HCT-15
[11] = system: SF-539
[12] = system: U-251
[13] = system: LXFL 529
[14] = system: SN12C
[15] = system: EKVX
[16] = system: MOLT-4
[17] = system: HOP-62
[18] = system: HCT-116
[19] = system: A549
[20] = system: IGROV-1
[21] = system: HOP-92
[22] = system: DMS-114
[23] = system: NCI-H226
[24] = system: SW-620
[25] = system: M14
[26] = system: SNB-19
[27] = system: UACC-62
[28] = system: SK-MEL-2
[29] = system: RXF 393
[30] = system: K562
[31] = system: NCI-H460
[32] = system: NCI-H23
[33] = system: XF498
[34] = system: SK-MEL-28
[35] = system: RPMI-8226
[36] = system: HCC 2998
[37] = system: OVCAR-8
[38] = system: HL-60
[39] = system: NCI-H522
[40] = system: CAKI-1
[41] = system: M19-MEL
[42] = system: SNB-78
[43] = system: TK-10
[44] = system: LOX IMVI
[45] = system: COLO 205
[46] = system: ACHN
[47] = system: OVCAR-4
[48] = system: SK-MEL-5
[49] = system: UO-31
[50] = system: SK-OV-3
[51] = system: HT-29
[52] = system: SR
[53] = system: UACC-257
[54] = system: DMS-273
[55] = system: KM12
[56] = system: SF-295

## O=C(Nc1ccc(Cl)cc1Cl)/C(Cl)=C1/Sc2ccccc2NC1=O
[1]
  GI50: 45.3 µM (inactive)
[2]
  GI50: 35.4 µM (inactive)
[3]
  GI50: 22.8 µM (inactive)
[4]
  GI50: 61.9 µM (inactive)
[5]
  GI50: 20 µM (inactive)
[6]
  GI50: 66.4 µM (inactive)
[7]
  GI50: 52.6 µM (inactive)
[8]
  GI50: 26.7 µM (inactive)
[9]
  GI50: 18 µM (inactive)
[10]
  GI50: 25.9 µM
[11]
  GI50: 30.2 µM (inactive)
[12]
  GI50: 32.3 µM (inactive)
[13]
  GI50: 22.2 µM (inactive)
[14]
  GI50: 28.4 µM (inactive)
[15]
  GI50: 58.1 µM (inactive)
[16]
  GI50: 25.6 µM (inactive)
[17]
  GI50: 39.7 µM (inactive)
[18]
  GI50: 23 µM (inactive)
[19]
  GI50: 39.3 µM (inactive)
[20]
  GI50: 28.6 µM (inactive)
[21]
  GI50: 16.8 µM (inactive)
[22]
  GI50: 20.1 µM (inactive)
[23]
  GI50: 25.2 µM (inactive)
[24]
  GI50: 33.7 µM (inactive)
[25]
  GI50: 29.2 µM (inactive)
[26]
  GI50: 34.5 µM (inactive)
[27]
  GI50: 25.6 µM (inactive)
[28]
  GI50: 15.2 µM (inactive)
[29]
  GI50: 27.9 µM (inactive)
[30]
  GI50: 29.6 µM (inactive)
[31]
  GI50: 38.6 µM (inactive)
[32]
  GI50: 19.6 µM (inactive)
[33]
  GI50: 1.32 µM (inactive)
[34]
  GI50: 23.6 µM (inactive)
[35]
  GI50: 24 µM (inactive)
[36]
  GI50: 32 µM (inactive)
[37]
  GI50: 50.5 µM (inactive)
[38]
  GI50: 21.9 µM (inactive)
[39]
  GI50: 18.8 µM (inactive)
[40]
  GI50: 41.2 µM (inactive)
[41]
  GI50: 37.8 µM (inactive)
[42]
  GI50: 44.9 µM (inactive)
[43]
  GI50: 73.5 µM (inactive)
[44]
  GI50: 40.6 µM (inactive)
[45]
  GI50: 26.6 µM (inactive)
[46]
  GI50: 38 µM (inactive)
[47]
  GI50: 24.7 µM (inactive)
[48]
  GI50: 19.3 µM (inactive)
[49]
  GI50: 30 µM (inactive)
[50]
  GI50: 20.8 µM (inactive)

## CN(C)NC(=O)NC12CC3CC(CC(C3)C1)C2
[1]
  GI50: > 100 µM (inactive)
[3]
  GI50: > 100 µM (inactive)
[51]
  GI50: > 100 µM (inactive)
[4]
  GI50: > 100 µM (inactive)
[52]
  GI50: > 100 µM (inactive)
[6]
  GI50: > 100 µM (inactive)
[7]
  GI50: > 100 µM (inactive)
[8]
  GI50: > 100 µM (inactive)
[9]
  GI50: > 100 µM (inactive)
[10]
  GI50: > 100 µM
[11]
  GI50: > 100 µM (inactive)
[12]
  GI50: > 100 µM (inactive)
[13]
  GI50: > 100 µM (inactive)
[14]
  GI50: > 100 µM (inactive)
[15]
  GI50: > 100 µM (inactive)
[16]
  GI50: > 100 µM (inactive)
[18]
  GI50: > 100 µM (inactive)
[19]
  GI50: > 100 µM (inactive)
[20]
  GI50: > 100 µM (inactive)
[21]
  GI50: > 100 µM (inactive)
[23]
  GI50: > 100 µM (inactive)
[24]
  GI50: > 100 µM (inactive)
[53]
  GI50: > 100 µM (inactive)
[54]
  GI50: > 100 µM (inactive)
[26]
  GI50: > 100 µM (inactive)
[55]
  GI50: > 100 µM (inactive)
[27]
  GI50: > 100 µM (inactive)
[28]
  GI50: > 100 µM (inactive)
[29]
  GI50: > 10 µM (inactive)
[30]
  GI50: > 100 µM (inactive)
[31]
  GI50: > 100 µM (inactive)
[32]
  GI50: > 100 µM (inactive)
[33]
  GI50: > 100 µM (inactive)
[34]
  GI50: > 10 µM (inactive)
[35]
  GI50: > 100 µM (inactive)
[37]
  GI50: > 100 µM (inactive)
[38]
  GI50: > 100 µM (inactive)
[39]
  GI50: > 100 µM (inactive)
[40]
  GI50: > 100 µM (inactive)
[41]
  GI50: > 100 µM (inactive)
[42]
  GI50: > 100 µM (inactive)
[43]
  GI50: > 10 µM (inactive)
[44]
  GI50: > 100 µM (inactive)
[45]
  GI50: > 100 µM (inactive)
[46]
  GI50: > 100 µM (inactive)
[47]
  GI50: > 100 µM (inactive)
[56]
  GI50: > 100 µM (inactive)
[48]
  GI50: > 100 µM (inactive)
[49]
  GI50: > 100 µM (inactive)
[50]
  GI50: > 100 µM (inactive)

## C=CN1C(=O)OC(c2ccccc2)C1c1ccccc1 (stereo unspecified)
[52]
  GI50: > 100 µM (inactive)
[7]
  GI50: > 100 µM (inactive)
[11]
  GI50: 61.1 µM (inactive) and > 31.6 µM (inactive)
[12]
  GI50: 54.7 µM (inactive) and > 31.6 µM (inactive)
[24]
  GI50: 40.7 µM (inactive) and > 31.6 µM (inactive)
[54]
  GI50: 57.4 µM (inactive) and > 31.6 µM (inactive)
[30]
  GI50: > 31.6 µM (inactive) and 40.5 µM (inactive)
[33]
  GI50: > 10 µM (inactive)
[38]
  GI50: > 31.6 µM (inactive) and 45.2 µM (inactive)
[44]
  GI50: 49.1 µM (inactive) and > 78.5 µM (inactive)
[56]
  GI50: > 100 µM (inactive) and > 99.3 µM (inactive)
